SMILES strings stand for the structures.

This assay addresses T1, human EP1 receptor (Homo sapiens, UniProt P34995).
T1 sequence (P34995 1-402): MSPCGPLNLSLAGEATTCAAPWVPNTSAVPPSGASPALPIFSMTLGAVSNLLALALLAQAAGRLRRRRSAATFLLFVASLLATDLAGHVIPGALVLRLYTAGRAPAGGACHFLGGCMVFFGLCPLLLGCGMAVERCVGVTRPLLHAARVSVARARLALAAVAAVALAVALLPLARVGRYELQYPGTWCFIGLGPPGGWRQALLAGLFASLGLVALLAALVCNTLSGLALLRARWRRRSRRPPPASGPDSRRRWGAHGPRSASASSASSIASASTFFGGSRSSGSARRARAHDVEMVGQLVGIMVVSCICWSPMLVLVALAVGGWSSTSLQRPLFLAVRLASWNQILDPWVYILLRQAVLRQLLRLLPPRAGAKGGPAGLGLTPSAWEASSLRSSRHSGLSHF
The experiment in a line: Test 2: Measurement of IP1 responses by HTRF, suspended HEK-293 cells stably expressing human EP1 receptors, PGE2 30 nM. The format is cell-based. Further details: expressed in transfected cells. Conditions: HEK293, at 10 μM, read-out: Results of Test 2 (Functional assay), % inh. The method, then: Test 2: Measurement of IP1 responses by Homogeneous Time Resolved Fluorescence
IP1 measurements on HEK-293 cells that stably expressed human EP1 receptors were performed by using a system based on Homogeneous Time Resolved Fluorescense (HTRF) (Gabriel et al., 2003). This technology allows the direct measurement of IP1 in living cells. The principle of this assay is based on competition between IP1 produced by cells and IP1-d2 conjugate for the binding with monoclonal anti-IP1-cryptate conjugate. The HTRF IP1 kit from CisBio was used according to the manufacturer's directions. The experimental procedure was performed as stated below.
Suspended cells (30,000 cells per well) were added to 96-well culture plates in 40 μl of stimulation buffer (supplied by the kit). Compounds were then added in 20 μl of stimulation buffer and incubated at 37° C. for 15 minutes followed by 10 μl of PGE2 to a final concentration of […]. After 90 minutes at 37° C., the reaction was stopped lysing the cells with a mixture of 15 μl of cryptate and 15 μl of IP1-d2 prepared in the lysis buffer supplied by the manufacturer. Plates were incubated for an additional hour at room temperature and read at 665 nm/620 nm using an UltraEvolution Plate reader (Tecan).
Antagonist percentage inhibition was calculated relating compounds activity to the 0% inhibition of the wells incubated with 10 nM PGE2 alone and 100% inhibition of the wells incubated with 10 nM PGE2 plus 1 μM of the reference antagonist.
For orientation: In TR-FRET formats the signal depends on donor and acceptor labels being close together.
Regarding `O=C(O)c1cccc2c1ccn2Cc1cc(Br)ccc1OCc1ccc(Cl)cc1F` [Example 9, 1-(5-bromo-2-((4-chloro-2-fluorobenzyl)oxy)benzyl)-1H-indole-4-carboxylic acid], the inhibition at 10 µM was over 75%.

For the molecule `CC(C)COc1cc(Cl)ccc1Cn1ccc2c(C(=O)O)cccc21` [Example 10, 1-(4-chloro-2-isobutoxybenzyl)-1H-indole-4-carboxylic acid], the inhibition at 10 µM is 45 to 75%.

Take `O=C(O)c1cccc2c1ccn2Cc1cc(F)ccc1OCc1ccc(F)cc1C(F)(F)F` [Example 18, 1-(5-fluoro-2-((4-fluoro-2-(trifluoromethyl)benzyl)oxy)benzyl)-1H-indole-4-carboxylic acid]: the inhibition at 10 µM is over 75%.

Consider `CC(Oc1ccc(Cl)cc1Cn1ccc2c(C(=O)O)cccc21)c1ccc(F)cc1F` (stereo not shown) [Example 23], for which the inhibition at 10 µM was over 75%.

As to `O=C(O)c1cccc2c1ccn2Cc1cc(Cl)cc(Br)c1OCc1ccc(Br)cc1F` [Example 28, 1-(3-bromo-2-((4-bromo-2-fluorobenzyl)oxy)-5-chlorobenzyl)-1H-indole-4-carboxylic acid], the inhibition at 10 µM lay in the range of 45 to 75%.

For `O=C(O)c1cccc2c1ccn2Cc1cc(F)ccc1OCc1ccc(F)cc1` [Example 35, 1-(5-fluoro-2-((4-fluorobenzyl)oxy)benzyl)-1H-indole-4-carboxylic acid], the inhibition at 10 µM is over 75%.

Regarding `O=C(O)c1cccc2c1ccn2Cc1cc(F)ccc1OCc1cc(F)c(F)cc1Cl` [Example 36, 1-(2-((2-chloro-4,5-difluorobenzyl)oxy)-5-fluorobenzyl)-1H-indole-4-carboxylic acid], the inhibition at 10 µM fell in the range of 45 to 75%.

Take `O=C(O)c1cccc2c1ccn2Cc1cc(C(F)(F)F)ccc1OCc1c(F)cccc1F` [Example 37, 1-(2-((2,6-difluorobenzyl)oxy)-5-(trifluoromethyl)benzyl)-1H-indole-4-carboxylic acid]: the inhibition at 10 µM is over 75%.

As to `O=C(O)c1cccc2c1ccn2Cc1cc(F)ccc1OCc1cc(F)ccc1Cl` [Example 38, 1-(2-((2-chloro-5-fluorobenzyl)oxy)-5-fluorobenzyl)-1H-indole-4-carboxylic acid], the inhibition at 10 µM is over 75%.

`O=C(O)c1cccc2c1ccn2Cc1cc(C(F)(F)F)ccc1OCc1cc(F)ccc1F` [Example 39, 1-(2-((2,5-difluorobenzyl)oxy)-5-(trifluoromethyl)benzyl)-1H-indole-4-carboxylic acid]: the inhibition at 10 µM is over 75%.

Consider `O=C(O)c1cccc2c1ccn2Cc1cc(Cl)cc(Br)c1OCc1c(F)cccc1F` [Example 40, 1-(3-bromo-5-chloro-2-((2,6-difluorobenzyl)oxy)benzyl)-1H-indole-4-carboxylic acid], for which the inhibition at 10 µM was 45 to 75%.

Take `O=C(O)c1cccc2c1ccn2Cc1cc(Cl)ccc1OCc1cc(F)cc(F)c1` [Example 41, 1-(5-chloro-2-((3,5-difluorobenzyl)oxy)benzyl)-1H-indole-4-carboxylic acid]: the inhibition at 10 µM was over 75%.

With `CC(c1cc(Cl)ccc1OCc1ccc(Cl)cc1F)n1ccc2c(C(=O)O)cccc21` (stereo not shown) [Example 42, 1-(1-(5-chloro-2-((4-chloro-2-fluorobenzyl)oxy)phenyl)ethyl)-1H-indole-4-carboxylic acid], the inhibition at 10 µM is over 75%.

Turning to `O=C(O)c1cccc2c1ccn2Cc1cc(Cl)ccc1OCc1ccc(F)cc1F` [Example 43, 1-(5-chloro-2-((2,4-difluorobenzyl)oxy)benzyl)-1H-indole-4-carboxylic acid], the inhibition at 10 µM is over 75%.

For the molecule `O=C(O)c1cccc2c1ccn2Cc1cc(Cl)ccc1OCc1ccc(Br)cc1F` [Example 46, 1-(2-((4-bromo-2-fluorobenzyl)oxy)-5-chlorobenzyl)-1H-indole-4-carboxylic acid], the inhibition at 10 µM is over 75%.

As for `O=C(O)c1cccc2c1ccn2Cc1cc(C(F)(F)F)ccc1OCc1ccccc1F` [Example 52, 1-(2-((2-fluorobenzyl)oxy)-5-(trifluoromethyl)benzyl)-1H-indole-4-carboxylic acid], the inhibition at 10 µM was over 75%.

The values are drawn from patent US9518015B2, “EP1 receptor ligands” (LABORATORIOS DEL DR. ESTEVE, S.A., priority 2011, dated 2016).
